Values quoted from earlier work in patent US20210267955A1, “LOW DOSE ORAL PHARMACEUTICAL COMPOSITION OF PIRFENIDONE OR SALT THEREOF” (Zenvision Pharma LLP, priority 2018, published 2021).

Details: methanol, ethyl alcohol, acetone, chloroform vs water and 1.0 N hydrochloric acid

Cc1ccc(=O)n(-c2ccccc2)c1 [Pirfenidone, 5-methyl-1-phenyl-2-(1H)-pyridone]
solubility (qualitative): more soluble in methanol, ethyl alcohol, acetone and chloroform than in water and 1.0 N hydrochloric acid
